Like-named read-outs stand apart in the source and are kept apart here.
Experiments:
[1] = system: Nitrososphaera viennensis; assay: Nitrification inhibition assay on Nitrososphaera viennensis (nitrite, Griess); format: cell-based, Nitrososphaera viennensis EN76T; details: for activity at 2.5 µM: Nitrososphaera viennensis, 2.5 µM compound, structural variants outside formula (I), read-out: Relative nitrification (%) by Nitrososphaera viennensis treated with 2.5 µM compound; for N. viennensis - relative nitrification (%) at 0.5 µM: 0.5 µM compound; for N. viennensis - relative nitrification (%) at 0.5 µM / N. viennensis - relative nitrification (%) at 5 µM / N. viennensis - relative nitrification (%) at 25 µM: 0% = as strong as 100 µM PTIO, 100% = no inhibition; for N. viennensis - relative nitrification (%) at 5 µM: 5 µM compound; for N. viennensis - relative nitrification (%) at 25 µM: 25 µM compound
Procedure: Nitrite (NO2—) was measured using the Griess reagent (Product number: G4410, Griess reagent (modified), Sigma-Aldrich). Equal volumes of the sample or a diluted sample and the Griess reagent were mixed a transparent flat bottom multi-well plate and incubated in the dark at room temperature for 10 minutes. Absorbance values at 540 nm were measured spectrophotometrically (EnVision, Perkin Elmer®) and used to calculate the [NO2—] by use of a standard curve.
A liquid culture sample of Nitrososphaera viennensis EN76T was kindly supplied by prof. dr. Christa Schleper (University of Vienna). Cells were grown in fresh water medium (FWM) as described earlier by Tourna et al. (2011). All necessary materials were rinsed with 1 % HCl and washed at least 3 times with MilliQ water. FWM (pH 7.5 (KOH)) contained 17 mM NaCl, 3 mM MgCl2 × 2 H2O, 680 µM CaCl2 × 2 H2O, 1.47 mM KH2PO4 and 6.71 mM KCI. After autoclaving, successively 1 mL non-chelated trace element mixture (101 mM HCl, 488 µM H3BO3, 508 µM MnCl2 × 4 H2O, 803 µM CoCl2 × 6 H2O, 101 µM NiCl2 × 6 H2O, 12 µM CuCl2 × 2 H2O, 503 µM ZnSO4 × 7 H2O and 150 µM Na2MoO4 × 2 H2O), 1 mL Fe-NaEDTA (7.5 mM), 1 mL vitamin solution (20 mg/L biotin, 20 mg/L folic acid, 100 mg/L pyridoxine-HCl, 50 mg/L thiamine-HCl, 50 mg/L riboflavin, 50 mg/L nicotinic acid, 50 mg/L DL-pantothenic acid, 50 mg/L P-aminobenzoic acid, 2 g/L choline chloride and 10 mg/L vitamin B12), 2 mL NaHCO3 (1 M), 2 mL kanamycin (100 mg/mL), 2 mL carbenicillin (100 mg/mL), 3 mL NH4Cl (1 M), 10 mL HEPES buffer (1 M, pH 7.6) and 1 mL Na-pyruvate (0.1 M) were added aseptically. All stock-solutions were filter-sterilized, except the autoclaved non-chelated trace element mixture. Cultures were incubated aerobically at 42° C. without shaking in sterile 250-mL Erlenmeyer flasks or 30-mL cultivation tubes (Product number: 216-1290, Quickstart universal containers STERILIN®, VWR) filled with either 100 or 20 mL FWM and sealed with tape (Micropore™ Surgical Tape 1530-1, 3M™). Late-log phase cultures ([NO2-] ≥ 1 mM) were subcultivated by dilution (1:400) in fresh FWM.
7-day old 100 mL cultures grown in 250-mL Erlenmeyer flasks with a [NO2-] ≥ 1 mM were 5 times overconcentrated in fresh FWM by centrifugation (4000 rpm, 15 min, 5° C.) in 50 mL centrifuge tubes (Cat. No. 430829, CentriStar™ Conical Centrifuge Tubes, Corning®). Per batch, all the cultures were pooled in one sterile Schott bottle. Subsequently, 200 µl/well was dispensed at low pipetting speed in transparent flat bottom 96-well plates (Cat. No. 353072, Falcon® 96 Well Clear Microplate, Corning®) using 150 µl wide-bore tips (two steps of 100 µl) on a Tecan robot (Freedom EVO®, Tecan). 0.5 µl of 99.99 % DMSO (negative control - final concentration 0.25%) and 0.5 µl of 0.04 M PTIO (2-phenyl-4,4,5,5-tetramethylimidazoline-1-oxyl 3-oxide, positive control - final concentration 100 µM) were added manually to the first and last column respectively. Finally, 0.5 µl of candidate nitrification inhibitors (1 mM stock solutions in 99.99% DMSO - final concentration 2.5 µM) were added to the central wells using a pin tool on a Tecan robot (Freedom EVO®, Tecan). In between additions, the pins were washed in sequence with 99.5% DMSO, MilliQ water and 100% ethanol and air-dried. All plates were sealed with tape (Micropore™ Surgical Tape 1530-1, 3M™), stacked per 4 on top of a 96-well plate filled with 100 µl MilliQ per well and covered with aluminum foil. Position effects of the stacks within the incubator were considered. Plates were incubated at 42° C. without shaking. 24 h later, NO2— was measured spectrophotometrically at 540 nm (EnVision, Perkin Elmer®). […]

[2] = system: ABIL (ammonia-binding liquid inoculum), nitrifying microbial enrichment containing both AOA and AOB; assay: Nitrification inhibition assay on ABIL (ammonium consumption); format: cell-based; details: 10 µM compound
[3] = structural variants outside formula (I), read-out: Relative nitrification (%) by ABIL treated with 10 µM compound
[4] = 24 h, 24 h, 0% = as strong as 100 µM PTIO, 100% = no inhibition, read-out: ABIL - relative nitrification (%) at 10 µM
[5] = 24 h, 0% = as strong as 100 µM PTIO, 100% = no inhibition

Compound | activity at 2.5 µM [1] | activity at 10 µM [2, 3] | other results
Cc1nn(C)c2ncc(CN3CCNCC3C)cc12 (stereo not drawn) [Example 82] | 96% | 100% | –
Cc1nn(C)c2nc(-c3ccco3)cc(C(=O)N(C)CCOc3cccc(Cl)c3)c12 [Example 8] | – | – | N. viennensis - relative nitrification (%) at 0.5 µM [1]: 100%; N. viennensis - relative nitrification (%) at 5 µM [1]: 98%; N. viennensis - relative nitrification (%) at 25 µM [1]: 5%
CC1CCCCN1C(=O)c1n[nH]c2ccccc12 (stereo not drawn) [Example 156] | 100% | 100% | –
CSCC(=O)Nc1ccc2[nH]ncc2c1 [Example 126] | 100% | 100% | –
CCOc1cc(C(=O)Nc2cnc3c(cnn3C(C)C)c2)c([N+](=O)[O-])cc1OC [Example 73] | 93% | 100% | –
Cc1cc(C)c2c(OCC(=O)N3CCOCC3(C)C)nn(C)c2n1 [Example 45] | 98% | 99% | –
Cc1nc2c(cc1C(=O)NC(C)C1CCCO1)c(C)nn2C (stereo not drawn) [Example 48] | 99% | 100% | –
COCCN(C(=O)c1cnc2c(cnn2C(C)C)c1)C1CC1 [Example 79] | 97% | 100% | –
O=S(=O)(Nc1ccc2cn[nH]c2c1)c1cccc2ccccc12 [Example 161] | 100% | 100% | –
CCCCc1nnc(NC(=O)c2n[nH]c3ccccc23)s1 [Example 97] | 100% | 86% | –
Fc1cccnc1N1CCC(NCc2cccc3cn[nH]c23)C1 (stereo not drawn) [Example 112] | 100% | 98% | –
CCC(CC)C(CNC(=O)c1n[nH]c2ccccc12)N1CCOCC1 (stereo not drawn) [Example 127] | 100% | 100% | –
CC(C)n1ncc2cc(NC(=O)N3CCN(S(=O)(=O)N4CCCCCC4)CC3)cnc21 [Example 83] | 100% | 100% | –
O=C1NC(=S)S/C1=C\c1cccc2cn[nH]c12 [Example 124] | 99% | 100% | –
CCC(C)(CC)NC(=O)COc1nn(C)c2nc(C)cc(C)c12 [Example 64] | 100% | 100% | –
Cc1ccc2[nH]nc(C(=O)N3CCS(=O)(=O)C(C)(C)C3)c2c1 [Example 104] | 100% | 93% | –
Cc1ccc2[nH]nc(C(=O)N3CC[S+]([O-])C(C)(C)C3)c2c1 (stereo not drawn) [Example 109] | 100% | 97% | –
CN(C(=O)Nc1ccc2c(cnn2C(F)F)c1)C1CCSC1 (stereo not drawn) [Example 159] | 91% | 100% | –
CS(=O)(=O)c1ccc(-c2noc(-c3cccc4[nH]ncc34)n2)cc1 [Example 135] | 100% | 100% | –
CC(C)n1ncc2cc(NC(=O)CCS(=O)(=O)c3ccc(Cl)cc3)cnc21 [Example 28] | 100% | 92% | –
Cc1nc2c(cnn2C(C)C)c(C)c1CCC(=O)NC12CC3CC(CC(C3)C1)C2 [Example 63] | 100% | 100% | –
CCCc1nnc(NCc2cccc3cn[nH]c23)o1 [Example 151] | 94% | 100% | –
CCNC(=O)c1cccc(NC(=O)c2n[nH]c3ccccc23)c1 [Example 122] | 95% | 100% | –
CCOc1ccc(CN(CC)C(=O)c2n[nH]c3ccccc23)cc1OC [Example 163] | 99% | 100% | –

Compound | activity at 2.5 µM [1] | activity at 10 µM [2, 3] | other results
O=C(NC1CC1)c1cccc(NC(=O)c2n[nH]c3ccccc23)c1 [Example 165] | 100% | 100% | –
CC(C)n1ncc2c(C(=O)NCCN(C)C)cc(C3CC3)nc21 [Example 15] | – | – | activity at 10 µM [2, 4]: 65%
CC(O)CCN(C)S(=O)(=O)c1ccc2cn[nH]c2c1 (stereo not drawn) [Example 108] | 100% | 97% | –
Cc1cc(C)c2c(OCC(=O)N(CC(F)F)C3CC3)nn(C)c2n1 [Example 67] | 100% | 100% | –
O=S(=O)(Cc1ccccc1F)Nc1ccc2[nH]ncc2c1 [Example 153] | 100% | 100% | –
Cc1nc2c(c(C)nn2C)c(C)c1CCC(=O)NCCc1ccc2c(c1)OCO2 [Example 47] | 100% | 100% | –
CC(CCc1ccco1)NC(=O)c1cnc2c(cnn2Cc2ccccc2)c1 (stereo not drawn) [Example 51] | 91% | 100% | –
C#CCOCCC(=O)Nc1n[nH]c2c(Cl)cccc12 [Example 120] | 98% | 100% | –
Cc1nc2cc(NC(=O)c3cnc4c(cnn4C(C)C)c3)ccc2o1 [Example 44] | 100% | 99% | –
O=C(NCCc1ccccc1)c1n[nH]c2ccccc12 [Example 98] | 100% | 89% | –
CNC(=O)C1(C(=O)Nc2cnc3c(cnn3C(C)C)c2)CC1 [Example 69] | 100% | 100% | –
Cc1nn(C)c2nc(C3CC3)cc(C(=O)NCCC(C)C)c12 [Example 16] | – | – | activity at 10 µM [2, 4]: 65%
CC(C)c1cc(C(=O)NCC2CCCO2)c2cnn(C(C)C)c2n1 (stereo not drawn) [Example 4] | – | – | ABIL - relative nitrification (%) at 10 µM [2, 5]: 10%
COCCNC(=O)c1cc(C2CC2)nc2c1cnn2C(C)C [Example 5] | – | – | activity at 10 µM [2, 4]: 11%
CC(C)n1ncc2c(C(=O)Nc3nc4c(s3)CCC4)cc(C3CC3)nc21 [Example 7] | – | – | N. viennensis - relative nitrification (%) at 0.5 µM [1]: 85%; N. viennensis - relative nitrification (%) at 5 µM [1]: 7%; N. viennensis - relative nitrification (%) at 25 µM [1]: 2%
Cc1nn(C(C)(C)C)c2nc(C3CC3)cc(C(=O)N(C)C)c12 [Example 11] | – | – | activity at 10 µM [2, 4]: 25%
Cc1nn(C)c2nc(C3CC3)cc(C(=O)N(C)CC(=O)Nc3ccc(Cl)c(Cl)c3)c12 [Example 17] | – | – | activity at 10 µM [2, 4]: 68%
Cc1nn(C(C)(C)C)c2nc(C3CC3)cc(C(=O)NC(C)C)c12 [Example 12] | – | – | activity at 10 µM [2, 4]: 30%
COCCONC(=O)c1cc(C2CC2)nc2c1c(C)nn2C(C)(C)C [Example 6] | – | – | activity at 10 µM [2, 4]: 16%
CC(C)c1cc(C(=O)NCC2CCCO2)c2cnn(C(C)C)c2n1 (stereo not drawn) [Example 13] | – | – | ABIL - relative nitrification (%) at 10 µM [2, 5]: 49%
CCCN(C)C(=O)c1cc(C2CC2)nc2c1cnn2C(C)C [Example 18] | – | – | activity at 10 µM [2, 4]: 69%
CCn1ncc2c(C(=O)NCC3CCCO3)cc(-c3ccccc3)nc21 (stereo not drawn) [Example 9] | – | – | N. viennensis - relative nitrification (%) at 0.5 µM [1]: 100%; N. viennensis - relative nitrification (%) at 5 µM [1]: 100%; N. viennensis - relative nitrification (%) at 25 µM [1]: 54%
CCC(C)NC(=O)c1cc(C(C)C)nc2c1cnn2C(C)C (stereo not drawn) [Example 14] | – | – | activity at 10 µM [2, 4]: 61%
CC(C)n1ncc2c(C(=O)NCCc3ccccn3)cc(C3CC3)nc21 [Example 10] | – | – | activity at 10 µM [2, 4]: 19%

From patent publication US20230357099A1, “PYRAZOLO [3,4-B] PYRIDINE-4-CARBOXAMIDE NITRIFICATION INHIBITOR” (EUROCHEM ANTWERPTEN, priority 2020, published 2023)
